Results: patent US10815238B2, “Antimicrobial compounds and methods of making and using the same” (BIOVERSYS AG, priority 2013, dated 2020)

How the values were obtained:
[1] = test system: Staphylococcus aureus (S. aureus) 11540 strain; assay: Standard microdilution assay, MIC against S. aureus 11540; assay type: cell-based; conditions: S. aureus 11540 strain, standard microdilution assay, cutoff 16 micrograms/mL, read-out: MIC S. aureus
Method in brief: (§1)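 Scoring as + or − used a 16 micrograms/mL cutoff on minimum inhibitory concentrations. These came from CLSI-standard microdilution, quality-controlled with reference strains tested in the same run.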

[2] = test system: Eschericia coli (E. coli) strain ATCC25922; assay: Standard microdilution assay, MIC against E. coli ATCC25922; assay type: cell-based; conditions: Escherichia coli; E. coli strain ATCC25922, standard microdilution assay; cutoff 16 micrograms/mL; read-out: MIC E. Coli
Method in brief: as §1

With `C[C@H](N)CCCc1cc(Cl)c(F)c(-c2cc3cn(-c4ccc([C@H]5CCC[C@H](CCNC6=NCCN6)N5)cc4)c(=O)nc3[nH]2)c1` [Compound 541] the MIC [1] was < 16 µg/mL and the MIC [2] was < 16 µg/mL.

For `C[C@H](N)CCCc1cc(Cl)c(F)c(-c2cc3cn(-c4ccc([C@H]5CCC[C@H](CCNc6ncc[nH]6)N5)cc4)c(=O)nc3[nH]2)c1` [Compound 542], the MIC [1] was < 16 µg/mL and the MIC [2] was < 16 µg/mL.

In the case of `C[C@H](N)CCCc1cc(Cl)c(F)c(-c2cc3cn(-c4ccc([C@@H]5CCC[C@@H](CCc6c[nH]nn6)N5)cc4)c(=O)nc3[nH]2)c1` [Compound 543], the MIC [1] was > 16 µg/mL and the MIC [2] was > 16 µg/mL.

`C[C@H](N)CCCc1cc(Cl)c(F)c(-c2cc3cn(-c4ccc(CN[C@H](CCNC(=N)N)CNS(C)(=O)=O)cc4)c(=O)nc3[nH]2)c1` [Compound 544] was tested, and the MIC [1] was < 16 µg/mL and the MIC [2] was < 16 µg/mL.

In the case of `C[C@H](N)CCCc1cc(Cl)c(F)c(-c2cc3cn(-c4ccc([C@@H]5CCC[C@@H](CCn6ncoc6=O)N5)cc4)c(=O)nc3[nH]2)c1` [Compound 545], the MIC [1] was > 16 µg/mL and the MIC [2] was > 16 µg/mL.

`C[C@H](N)CCCc1cc(Cl)c(F)c(-c2cc3cn(-c4ccc([C@@H]5CCC[C@@H](CCc6nccs6)N5)cc4)c(=O)nc3[nH]2)c1` [Compound 546] was tested, and the MIC [1] was < 16 µg/mL and the MIC [2] was > 16 µg/mL.

For `C[C@H](N)CCCc1cc(Cl)c(F)c(-c2cc3cn(-c4ccc([C@@H]5CCC[C@@H](CCn6cnc([N+](=O)[O-])c6)N5)cc4)c(=O)nc3[nH]2)c1` [Compound 548], the MIC [1] was < 16 µg/mL and the MIC [2] was > 16 µg/mL.

In the case of `C[C@H](N)CCCc1cc(Cl)c(F)c(-c2cc3cn(-c4ccc([C@@H]5CCC[C@@H](CCc6c[nH]cn6)N5)cc4)c(=O)nc3[nH]2)c1` [Compound 549], the MIC [1] was < 16 µg/mL and the MIC [2] was < 16 µg/mL.

With `C[C@H](N)CCCc1cc(Cl)c(F)c(-c2cc3cn(-c4ccc([C@@H]5CCC[C@@H](CNCC6CCOCC6)N5)cc4)c(=O)nc3[nH]2)c1` [Compound 550] the MIC [1] was > 16 µg/mL and the MIC [2] was > 16 µg/mL.

In the case of `C[C@H](N)CCCc1cc(Cl)c(F)c(-c2cc3cn(-c4ccc([C@@H]5CCC[C@@H](CNCc6nccn6C)N5)cc4)c(=O)nc3[nH]2)c1` [Compound 551], the MIC [1] was > 16 µg/mL and the MIC [2] was > 16 µg/mL.

`C[C@H](N)CCCc1cc(Cl)c(F)c(-c2cc3cn(-c4ccc([C@@H]5CCC[C@@H](CCNc6ncc[nH]6)N5)cc4)c(=O)nc3[nH]2)c1` [Compound 552] was tested, and the MIC [1] was < 16 µg/mL and the MIC [2] was < 16 µg/mL.

`C[C@H](N)CCCc1cc(OC(F)(F)F)c(F)c(-c2cc3cn(-c4ccc([C@@H]5CCC[C@@H](CCNc6ncc[nH]6)N5)cc4)c(=O)nc3[nH]2)c1` [Compound 553] was tested, and the MIC [1] was < 16 µg/mL and the MIC [2] was < 16 µg/mL.

`C[C@H](N)CCCc1cc(Cl)c(F)c(-c2cc3cn(-c4ccc([C@H]5CCO[C@H](CCN)C5)cc4)c(=O)nc3[nH]2)c1` [Compound 554] was tested, and the MIC [1] was < 16 µg/mL and the MIC [2] was < 16 µg/mL.

For `C[C@H](N)CCCc1cc(Cl)c(F)c(-c2cc3cn(-c4ccc([C@H]5CCO[C@H](CCNC(=N)N)C5)cc4)c(=O)nc3[nH]2)c1` [Compound 555], the MIC [1] was < 16 µg/mL and the MIC [2] was < 16 µg/mL.

For `C[C@H](N)CCCc1cc(Cl)c(F)c(-c2cc3cn(-c4ccc([C@@H]5CCC[C@@H](CCCNC(=N)N)N5)cc4)c(=O)nc3[nH]2)c1` [Compound 556], the MIC [1] was < 16 µg/mL and the MIC [2] was < 16 µg/mL.

`C[C@H](N)CCCc1cc(Cl)c(F)c(-c2cc3cn(-c4ccc([C@@H]5CCC[C@@H](CCCN)N5)cc4)c(=O)nc3[nH]2)c1` [Compound 557] was tested, and the MIC [1] was < 16 µg/mL and the MIC [2] was < 16 µg/mL.

In the case of `C[C@H](N)CCCc1cc(Cl)c(F)c(-c2cc3cn(-c4ccc([C@@H]5CCC[C@@H](CNCc6ccncc6)N5)cc4)c(=O)nc3[nH]2)c1` [Compound 558], the MIC [1] was < 16 µg/mL and the MIC [2] was < 16 µg/mL.

In the case of `C[C@H](N)CCCc1cc(Cl)c(F)c(-c2cc3cn(-c4ccc([C@@H]5CCC[C@@H](CNCC6CCCC6)N5)cc4)c(=O)nc3[nH]2)c1` [Compound 559], the MIC [1] was < 16 µg/mL and the MIC [2] was < 16 µg/mL.

`Cc1nnc(NC[C@@H](CCNC(=N)N)NCc2ccc(-n3cc4cc(-c5cc(CCC[C@H](C)N)cc(Cl)c5F)[nH]c4nc3=O)cc2)s1` [Compound 560] was tested, and the MIC [1] was < 16 µg/mL and the MIC [2] was < 16 µg/mL.

For `C[C@H](N)CCCc1cc(Cl)c(F)c(-c2cc3cn(-c4ccc([C@H]5CCO[C@H](CNC(=N)N)C5)cc4)c(=O)nc3[nH]2)c1` [Compound 561], the MIC [1] was < 16 µg/mL and the MIC [2] was < 16 µg/mL.

With `C[C@H](N)CCCc1cc(Cl)c(F)c(-c2cc3cn(-c4ccc(CNC5CC(NC(=N)N)C5)cc4)c(=O)nc3[nH]2)c1` (some centres unmarked) [Compound 563] the MIC [1] was < 16 µg/mL and the MIC [2] was < 16 µg/mL.

With `C[C@H](N)CCCc1cc(Cl)c(F)c(-c2cc3cn(-c4ccc(C5=NCCCN5)cc4)c(=O)nc3[nH]2)c1` [Compound 564] the MIC [1] was < 16 µg/mL and the MIC [2] was < 16 µg/mL.

`C[C@H](N)CCCc1cc(OC(F)(F)F)c(F)c(-c2cc3cn(-c4ccc(C5=NCCCN5)cc4)c(=O)nc3[nH]2)c1` [Compound 565] was tested, and the MIC [1] was < 16 µg/mL and the MIC [2] was < 16 µg/mL.

`C[C@H](N)CCCc1cc(Cl)c(F)c(-c2cc3cn(-c4ccc(C(=N)N)cc4)c(=O)nc3[nH]2)c1` [Compound 566] was tested, and the MIC [1] was < 16 µg/mL and the MIC [2] was > 16 µg/mL.

`C[C@H](N)CCCc1cc(Cl)c(F)c(-c2cc3cn(-c4ccc([C@@H]5CCC[C@H]6CCN=CN65)cc4)c(=O)nc3[nH]2)c1` [Compound 567] was tested, and the MIC [1] was < 16 µg/mL and the MIC [2] was > 16 µg/mL.

In the case of `CC1=NCC[C@@H]2CCC[C@@H](c3ccc(-n4cc5cc(-c6cc(CCC[C@H](C)N)cc(Cl)c6F)[nH]c5nc4=O)cc3)N12` [Compound 568], the MIC [1] was < 16 µg/mL and the MIC [2] was > 16 µg/mL.

For `C[C@@H](CN)CN1CC[C@@H](c2cc3cn(-c4ccc(CNCCCNC(=N)N)cc4)c(=O)nc3[nH]2)C1` [Compound 569], the MIC [1] was < 16 µg/mL and the MIC [2] was < 16 µg/mL.

`C[C@H](CN)CN1CC[C@@H](c2cc3cn(-c4ccc([C@H](C)NCCCNC(=N)N)cc4)c(=O)nc3[nH]2)C1` [Compound 570] was tested, and the MIC [1] was < 16 µg/mL and the MIC [2] was < 16 µg/mL.

With `C[C@H](CN)COC(=O)N1CC[C@@H](c2cc3cn(-c4ccc(CNCCCNC(=N)N)cc4)c(=O)nc3[nH]2)C1` [Compound 571] the MIC [1] was < 16 µg/mL and the MIC [2] was < 16 µg/mL.

For `C[C@H](N)CCN1CC[C@@H](c2cc3cn(-c4ccc(CNCCCNC(=N)N)cc4)c(=O)nc3[nH]2)C1` [Compound 572], the MIC [1] was < 16 µg/mL and the MIC [2] was < 16 µg/mL.

With `C[C@H](N)CCN1CC[C@@H](c2cc3cn(-c4ccc([C@H](C)NCCCNC(=N)N)cc4)c(=O)nc3[nH]2)C1` [Compound 573] the MIC [1] was < 16 µg/mL and the MIC [2] was < 16 µg/mL.

For `C[C@@H](CN)CN1CC[C@@H](c2cc3cn(-c4ccc(CN5CCCNC5=N)cc4)c(=O)nc3[nH]2)C1` [Compound 574], the MIC [1] was > 16 µg/mL and the MIC [2] was < 16 µg/mL.

`C[C@@H](CN)CN1CC[C@@H](c2cc3cn(-c4ccc([C@H](C)NCCCNC(=N)N)cc4)c(=O)nc3[nH]2)C1` [Compound 575] was tested, and the MIC [1] was < 16 µg/mL and the MIC [2] was < 16 µg/mL.

In the case of `C[C@@H](CNC(=N)N)CN1CC[C@@H](c2cc3cn(-c4ccc([C@H](C)NCCCNC(=N)N)cc4)c(=O)nc3[nH]2)C1` [Compound 576], the MIC [1] was < 16 µg/mL and the MIC [2] was < 16 µg/mL.

In the case of `C[C@H](N)CCCN1CC[C@@H](c2cc3cn(-c4ccc(CNCCCNC(=N)N)cc4)c(=O)nc3[nH]2)C1` [Compound 577], the MIC [1] was < 16 µg/mL and the MIC [2] was < 16 µg/mL.

In the case of `C[C@H](N)CCCN1CC[C@@H](c2cc3cn(-c4ccc([C@H](C)NCCCNC(=N)N)cc4)c(=O)nc3[nH]2)C1` [Compound 578], the MIC [1] was < 16 µg/mL and the MIC [2] was < 16 µg/mL.

In the case of `C[C@H](N)CCN1CCC(c2cc3cn(-c4ccc([C@@H]5CCC[C@@H](CCNC(=N)N)N5)cc4)c(=O)nc3[nH]2)C1` (some centres unmarked) [Compound 579], the MIC [1] was < 16 µg/mL and the MIC [2] was < 16 µg/mL.

`C[C@@H](CN)CN1CC[C@@H](c2cc3cn(-c4ccc(C(=N)NC5CCCC5)cc4)c(=O)nc3[nH]2)C1` [Compound 580] was tested, and the MIC [1] was > 16 µg/mL and the MIC [2] was > 16 µg/mL.

With `C[C@@H](CN)CN1CC[C@@H](c2cc3cn(-c4ccc(C(=N)NCC[C@H](C)N)cc4)c(=O)nc3[nH]2)C1` [Compound 581] the MIC [1] was < 16 µg/mL and the MIC [2] was < 16 µg/mL.

With `C[C@H](N)CCCc1cc(-c2cc3cn(CC(=O)NCc4ccc(CNC(=N)N)cc4)c(=O)nc3[nH]2)cc(C(F)(F)F)c1` [Compound 582] the MIC [1] was > 16 µg/mL and the MIC [2] was > 16 µg/mL.
